Measured values reported in patent US7816522B2, “Triazolone derivatives” (Eisai Co., Ltd., priority 2006, dated 2010).

Target: T1, human clotting factor VIIa (Homo sapiens, UniProt P08709)
T1 construct: a human clotting factor VIIa (hereinafter, “Factor VIIa”) purified sample; purchased Enzyme Research Laboratories HFVIIa
Assay: Inhibitory activity against clotting factor VIIa (chromogenic substrate Spectrozyme FVIIa, TF/Factor VIIa enzyme solution)
Format: biochemical
Settings: human Factor VIIa 5 nmol/L with human TF 10 nmol/L, room temperature 40 minutes, 405 nm
How it was run: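 Human Factor VIIa (5 nmol/L) with human TF (10 nmol/L) in Tris-BSA buffer pH 7.4 containing 15 mmol/L CaCl2 and cephalin, with Spectrozyme FVIIa substrate. Reaction 40 min at room temperature; 4-nitroanilide read at 405 nm. IC50 by non-linear regression over 100 μmol/L–0.1 nmol/L.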

T1 sequence (P08709 213-466 limits assumed): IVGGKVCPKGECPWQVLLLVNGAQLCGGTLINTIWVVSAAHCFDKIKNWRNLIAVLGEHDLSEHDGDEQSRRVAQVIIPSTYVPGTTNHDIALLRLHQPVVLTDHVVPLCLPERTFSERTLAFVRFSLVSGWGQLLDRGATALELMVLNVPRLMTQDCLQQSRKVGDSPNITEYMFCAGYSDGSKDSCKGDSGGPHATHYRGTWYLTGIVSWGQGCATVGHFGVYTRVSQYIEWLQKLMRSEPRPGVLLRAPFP
T1 sequence (P08709 61-212 limits assumed): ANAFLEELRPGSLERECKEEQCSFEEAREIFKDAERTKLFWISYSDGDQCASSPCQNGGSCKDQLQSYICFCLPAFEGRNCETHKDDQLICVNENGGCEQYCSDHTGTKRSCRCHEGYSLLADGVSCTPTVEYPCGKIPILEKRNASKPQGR
T1 sequence (P13726 33-295 partner): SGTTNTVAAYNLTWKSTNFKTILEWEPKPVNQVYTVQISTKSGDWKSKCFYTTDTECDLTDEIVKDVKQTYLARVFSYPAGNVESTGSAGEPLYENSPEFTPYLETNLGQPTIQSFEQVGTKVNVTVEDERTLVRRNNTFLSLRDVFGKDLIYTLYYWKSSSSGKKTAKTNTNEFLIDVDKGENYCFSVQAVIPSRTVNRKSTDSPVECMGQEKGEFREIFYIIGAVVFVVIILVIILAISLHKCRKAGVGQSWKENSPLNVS

Compound	IC50
COc1cc(C(Nc2ccc(C(=N)N)cc2)c2nn(-c3ncccc3F)c(=O)[nH]2)cc2c1OCOC2 (racemic) [Example 133, (R) and (S)-4-({[1-(3-fluoropyridin-2-yl)-5-oxo-4,5-dihydro-1H-[1,2,4]triazol-3-yl]-(8-methoxy-4H-benzo[1,3]dioxin-6-yl)methyl}amino)benzamidine acetate]	6.3 nM
COc1cc(OCCF)c(F)c(C(Nc2ccc(C(=N)N)cc2)c2nn(-c3ncccc3N)c(=O)[nH]2)c1 (racemic) [Example 136, (R) and (S)-4-({[1-(3-aminopyridin-2-yl)-5-oxo-4,5-dihydro-1H-[1,2,4]triazol-3-yl]-[2-fluoro-3-(2-fluoroethoxy)-5-methoxyphenyl]methyl}amino)benzamidine acetate]	5.1 nM
COc1cc(C(Nc2ccc(C(=N)N)cc2)c2nn(-c3cccnn3)c(=O)[nH]2)ccc1OCC#N (racemic) [Example 144, (R) and (S)-4-{[(4-cyanomethoxy-3-methoxyphenyl)-(5-oxo-1-pyridazin-3-yl-4,5-dihydro-1H-[1,2,4]triazol-3-yl)methyl]amino}benzamidine acetate]	7.7 nM
COc1cc(C(Nc2ccc(C(=N)N)cc2)c2nn(-c3cccnn3)c(=O)[nH]2)cc(CC#N)c1F (racemic) [Example 146, (R) and (S)-4-{[(3-cyanomethyl-4-fluoro-5-methoxyphenyl)-(5-oxo-1-pyridazin-3-yl-4,5-dihydro-1H-[1,2,4]triazol-3-yl)methyl]amino}benzamidine acetate]	8.1 nM
COc1cc(C(Nc2ccc(C(=N)N)cc2)c2nn(-c3cccnn3)c(=O)[nH]2)cc2c1OCOC2 (racemic) [Example 150, (R) and (S)-4-{[(8-methoxy-4H-benzo[1,3]dioxin-6-yl)-(5-oxo-1-pyridazin-3-yl-4,5-dihydro-1H[1,2,4]triazol-3-yl)methyl]amino}benzamidine acetate]	9 nM
COC(=O)c1sccc1-n1nc(C(Nc2ccc(C(=N)N)cc2)c2cc3c(c(OC)c2)OCOC3)[nH]c1=O (racemic) [Example 152, (R) and (S)-3-{3-[(4-carbamimidoylphenylamino)-(8-methoxy-4H-benzo[1,3]dioxin-6-yl)methyl]-5-oxo-4,5-dihydro[1,2,4]triazol-1-yl}thiophene-2-carboxylic acid methyl ester acetate]	1.2 nM
COc1cc(OCCO)c(F)c(C(Nc2ccc(C(=N)N)cc2)c2nn(-c3ncccn3)c(=O)[nH]2)c1 (racemic) [Example 153, 4-({[2-fluoro-3-(2-hydroxyethoxy)-5-methoxyphenyl]-(5-oxo-1-pyrimidin-2-yl-4,5-dihydro-1H-[1,2,4]triazol-3-yl)methyl}amino)benzamidine]	4.8 nM
COc1cc(OC)c(F)c(C(Nc2ccc(C(=N)N)cc2)c2nn(-c3ncc[nH]c3=O)c(=O)[nH]2)c1 (racemic) [Example 154, (R) and (S)-4-({(2-fluoro-3,5-dimethoxyphenyl)-[5-oxo-1-(3-oxo-3,4-dihydropyrazin-2-yl)]-4,5-dihydro-1H-[1,2,4]triazol-3-yl]methyl}amino)benzamidine acetate]	21 nM
COc1cc(OCCCO)cc(C(Nc2ccc(C(=N)N)cc2)c2nn(-c3ncccn3)c(=O)[nH]2)c1 (racemic) [Example 158, 4-({[3-(3-hydroxypropoxy)-5-methoxyphenyl]-(5-oxo-1-pyrimidin-2-yl-4,5-dihydro-1H-[1,2,4]triazol-3-yl)methyl}amino)benzamidine]	5.1 nM
CCOc1cc(C(Nc2ccc(C(=N)N)cc2)c2nn(-c3ncccn3)c(=O)[nH]2)cnc1OC (racemic) [Example 160, 4-{[(R) and (S)-(5-ethoxy-6-methoxypyridin-3-yl)-(5-oxo-1-pyrimidin-2-yl-4,5-dihydro-1H-[1,2,4]triazol-3-yl)methyl]amino}benzamidine acetate]	9.4 nM

The remaining molecules from weak to strong by IC50, led by results:

IC50	Compound
23 nM	COc1cc(F)c(C(Nc2ccc(C(=N)N)c(F)c2)c2nn(-c3ncccn3)c(=O)[nH]2)cc1OC (racemic) [Example 143, (R) and (S)-2-fluoro-4-{[(2-fluoro-4,5-dimethoxyphenyl)-(5-oxo-1-pyrimidin-2-yl-4,5-dihydro-1H-[1,2,4]triazol-3-yl)methyl]amino}benzamidine acetate]
11.7 nM	COc1cc(C(Nc2ccc(C(=N)N)cc2)c2nn(-c3ncccn3)c(=O)[nH]2)cc(OCCO)c1OC (racemic) [Example 159, 4-({(R) and (S)-[3-(2-hydroxyethoxy)-4,5-dimethoxyphenyl]-(5-oxo-1-pyrimidin-2-yl-4,5-dihydro-1H-[1,2,4]triazol-3-yl)methyl}amino)benzamidine acetate]
10.3 nM	COc1cc(OC)c(F)c(C(Nc2ccc(C(=N)N)cc2)c2nn(-c3ncccc3N)c(=O)[nH]2)c1 (racemic) [Example 137, (R) and (S)-4-({[1-(3-aminopyridin-2-yl)-5-oxo-4,5-dihydro-1H-[1,2,4]triazol-3-yl]-(2-fluoro-3,5-dimethoxyphenyl)methyl}amino)benzamidine acetate]
9.2 nM	COc1ccc(C(Nc2ccc(C(=N)N)cc2)c2nn(-c3cccnn3)c(=O)[nH]2)cc1OC (racemic) [Example 149, (R) and (S)-4-{[(3,4-dimethoxyphenyl)-(5-oxo-1-pyridazin-3-yl-4,5-dihydro-1H-[1,2,4]triazol-3-yl)methyl]amino}benzamidine acetate]
8.7 nM	COc1cc(OC)c(F)c(C(Nc2ccc(C(=N)N)cc2)c2nn(-c3cccnn3)c(=O)[nH]2)c1 (racemic) [Example 145, (R) and (S)-4-{[(2-fluoro-3,5-dimethoxyphenyl)-(5-oxo-1-pyridazin-3-yl-4,5-dihydro-1H-[1,2,4]triazol-3-yl)methyl]amino}benzamidine acetate]
8.7 nM	COc1cc(OCC#N)c(F)c(C(Nc2ccc(C(=N)N)cc2)c2nn(-c3cccnn3)c(=O)[nH]2)c1 (racemic) [Example 148, (R) and (S)-{[(3-cyanomethoxy-2-fluoro-5-methoxyphenyl)-(5-oxo-1-pyridazin-3-yl-4,5-dihydro-1H-[1,2,4]triazol-3-yl)methyl]amino}benzamidine acetate]
5.4 nM	COc1cc(OCCF)c(F)c(C(Nc2ccc(C(=N)N)cc2)c2nn(-c3cccnn3)c(=O)[nH]2)c1 (racemic) [Example 151, (R) and (S)-4-{[(2-fluoro-3-(2-fluoroethoxy)-5-methoxyphenyl)-(5-oxo-1-pyridazin-3-yl-4,5-dihydro-1H-[1,2,4]triazol-3-yl)methyl]amino}benzamidine acetate]
5.2 nM	COc1cc(C(Nc2ccc(C(=N)N)cc2)c2nn(-c3ncccn3)c(=O)[nH]2)cc2c1OCCCO2 (racemic) [Example 156, (R) and (S)-4-{[(9-methoxy-3,4-dihydro-2H-benzo[b][1,4]dioxepin-7-yl)-(5-oxo-1-pyrimidin-2-yl-4,5-dihydro-1H-[1,2,4]triazol-3-yl)methyl]amino}benzamidine acetate]
2.3 nM	COc1ccc(C(Nc2ccc(C(=N)N)cc2)c2nn(-c3ccsc3C(=O)O)c(=O)[nH]2)cc1OC (racemic) [Example 155, (R) and (S)-3-{3-[(4-carbamimidoylphenylamino)-(3,4-dimethoxyphenyl)methyl]-5-oxo-4,5-dihydro[1,2,4]triazol-1-yl}thiophene-2-carboxylic acid acetate]
